This is an account of results in patent US6469141B1, “D1-like dopamine receptor activity modifying protein” (Medical College of Georgia Research Institute Inc., priority 1998, dated 2002).

For test [1], the system named is endogenous P2Y purinergic receptors. Kind of test: Fura-2 Ca++ imaging, P2Y receptor-stimulated Ca++i release in D1 HEK293 cells. The test is classed as cell-based, human. The protocol: Drugs were prepared in HBS and manually applied.
Changes in Ca^++i levels were measured using ratiofluorometric imaging following bath application of ligand. Application of DA or 10:M […] produced no detectable response in untransfected D1 HEK293 cells, or cells expressing either EGFP or EGFP-Calcyon. In vivo, DA is considered primarily to be a neuromodulator. Therefore, to test whether Calcyon plays a role in the D1 receptor's ability to modulate other stimuli, we applied agonists of endogenous GPCRs prior to stimulating D1 receptors. […].

The next test concerns protein kinase C (PKC). Kind of test: 32P-orthophosphate in vivo labeling and GFP mab immunoprecipitation of EGFP-Calcyon. The class given is cell-based, human. The settings on record: 100 nM PMA, 0.5 h. On the procedure:
Approximately 40 h after transfection, pEGFP or pEGFP-Calcyon transfected D1 HEK293 cells were washed and placed in HBS (phosphate-free media) for 1.5 h prior to addition of [^32P] orthophosphate (135 μCi/ml). 2 h later, cells were treated with 100 nM PMA (Phorbol 12-Myristate 13-Acetate) in HBS for 0.5 h at 37°. Cells were then washed once in cold PBS and solubilized in mild lysis solution (Cytosignal, Irvine, Calif.) containing protease inhibitor cocktail (Boehringer Manheim) and phosphatase inhibitors, 50 μM NaF and 5 μM EGTA. Lysates were centrifuged for 5 min at 14,000 rpm and the supernatant was incubated at RT. for 1 h with mouse anti-GFP mab (Clontech, Palo Alto, Calif.) (diluted 1:100), followed by 0.02 volume of protein A/G agarose slurry for 30 min. The resin was washed twice with mild lysis solution, and adsorbed proteins eluted in SDS PAGE loading buffer (Laemmli, U.K., Nature 227:680-5 (1970)). Samples were analyzed by SDS-PAGE, using a 15% gel (Bio-Rad). The gel was dried and visualized using a Phosphorimager SF (Molecular Dynamics). […]
The Calcyon sequence contains two consensus protein kinase C (PKC) phosphorylation sites within its predicted cytoplasmic domain. […] GFP mab immunoprecipated a ^32P-labeled protein from pEGFP-Calcyon transfected cells with size equal to that detected by Calcyon antibodies. […]

Test [2] deals with T1, hD1 receptors (Homo sapiens, UniProt P21728).
T1 construct: pLXSN (Clontech) plasmid containing full-length human D1 (Zhou et al., Nature 347:76-80 (1990)); expressed in transfected cells
T1 sequence (P21728 whole entry): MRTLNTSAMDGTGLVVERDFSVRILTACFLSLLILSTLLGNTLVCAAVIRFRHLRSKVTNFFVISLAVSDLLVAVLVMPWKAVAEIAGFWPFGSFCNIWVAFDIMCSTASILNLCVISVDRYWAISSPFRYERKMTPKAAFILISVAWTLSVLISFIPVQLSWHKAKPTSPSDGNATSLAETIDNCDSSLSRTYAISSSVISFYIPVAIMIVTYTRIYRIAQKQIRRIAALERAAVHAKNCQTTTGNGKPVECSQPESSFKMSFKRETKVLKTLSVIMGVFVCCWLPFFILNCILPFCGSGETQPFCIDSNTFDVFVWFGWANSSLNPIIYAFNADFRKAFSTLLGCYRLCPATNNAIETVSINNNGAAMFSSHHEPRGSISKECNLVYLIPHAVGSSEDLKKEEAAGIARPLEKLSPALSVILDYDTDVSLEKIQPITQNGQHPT
The test is described as follows: Fura-2 Ca++ imaging of D1 receptor-stimulated Ca++i release in D1 HEK293 cells. The settings on record: for effect of PKC inhibitor on SKF81297-induced Ca++ mobilization: EGFP-Calcyon expressing D1 HEK293 cells, HCl. The class given is cell-based. On the procedure:
For Ca^++ imaging, cells were rinsed with HBS (150 mM NaCl, 10 mM NaHEPES, 10 mM glucose, 2.5 mM KCI, 4 mM CaCl2 and 2 mM MgCl2, pH 7.4) and then loaded with 5 μM Fura-2 AM (Molecular Probes) in HBS at RT. After 20 min, cells were washed three times with HBS. Assays were performed at RT in 1.5 ml of HBS. Drugs were prepared in HBS and manually applied. […] Images were collected with a CCD camera connected to a Silicon Graphics workstation, and analyzed with Inovision-Ratiotool 4.3.5. Transfected cells were identified by illumination at 490 nm, and selected as areas for analysis. […] Fluorescence emission at 510 nm was monitored for each excitation wavelength via the CCD camera at 10 s intervals. Average pixel intensities within 6-8 selected areas (each area corresponded to single transfected cell) for both wavelengths at each time point were digitized and stored on the computer.
Changes in Ca^++i levels were measured using ratiofluorometric imaging following bath application of ligand. […] In vivo, DA is considered primarily to be a neuromodulator. Therefore, to test whether Calcyon plays a role in the D1 receptor's ability to modulate other stimuli, we applied agonists of endogenous GPCRs prior to stimulating D1 receptors.
(§1) pEGFP-Calcyon was created by inserting a 0.9 kb Eco RI-Xho I fragment encoding full-length Calcyon into pEGFP-C3 (Clontech). pEGFP-C3 and pEGFP-Calcyon plasmid DNAs were transiently transfected into HEK293 and D1 HEK293 cell lines using Effectene™ (Qiagen) according to manufacturer's recommendations. 2.5×10^5 cells were seeded in 6-well plates, and transfected with 0.4:g plasmid DNA/well for Ca^++ imaging, cAMP, and immunoprecipitation assays.

Test [3] concerns the target T1, hD1 receptors. The test is described as follows: cAMP assay in transfected D1 HEK293 cells. The test is classed as cell-based. The protocol: Following centrifugation to pellet proteins, cAMP levels in supernatant were determined by Direct cAMP Enzyme Immunoassay Kit (Assay Designs, Inc.) according to the supplier's protocol. […] Results (pmol cAMP/mg protein) are reported as average of three independent trans fection experiments.
It was determined whether Calcyon influenced D1 receptor coupling to the cAMP second messenger system in D1 HEK293 cells transfcctcd with expression plasmids encoding either enhanced green fluorescent protein (EGFP), or Calcyon tagged at its N-terminus by EGFP.
as §1
Background: Cyclic AMP is a second messenger, typically raised through Gs and lowered through Gi signalling.

Test [4] has as its target T2, GSTD1 (C-terminal 81 residues of hD1 receptor) (Homo sapiens, UniProt P21728).
T2 construct: C-terminal 81 amino acids of the hD1 receptor (residues 365-446); made in house; host or cells: S-Calcyon: BL21(DE3) E. coli
T2 sequence (P21728 365-446): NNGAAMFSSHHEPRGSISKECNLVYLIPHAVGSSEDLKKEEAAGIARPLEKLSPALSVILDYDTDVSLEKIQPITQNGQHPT
T2 sequence (Q9NYX4 93-217 partner): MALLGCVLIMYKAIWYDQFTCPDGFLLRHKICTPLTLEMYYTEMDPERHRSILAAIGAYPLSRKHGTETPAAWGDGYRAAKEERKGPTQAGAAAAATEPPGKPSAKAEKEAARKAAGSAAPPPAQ
The test is described as follows: S-agarose pull-down assay with GSTD1 fusion protein. The class given is binding. The settings on record: immunoblot with D1 receptor antibodies. The text has this: For pull-down assays, a 550 bp Nco I-Bgl II fragment from pACT-Calcyon was subcloned into pET30a (Novagen, Madison, Wis.) to produce the S-Calcyon fusion protein containing residues 93-217 of the predicted Calcyon protein as well as an N-terminal tag composed of the 15 residue S peptide of ribonuclease S (Richards, F. M., et al., The Enzymes. ed.: Boyer, P. D., Academic Press, N.Y., pp. 647-806 (1971)). The S-β-galactosidase fusion protein was composed of bacterial β-galactosidase protein tagged at its N-terminus with the S peptide. Fusion proteins were induced in BL2I(DE3) E. coli with IPTG, and coupled to S-agarose resin (Novagen, Madison, Wis.) by incubating soluble fractions of bacterial lysates with resin for 1 h at RT Following incubation, unbound proteins were eliminated by washing the resin three times in 50 volumes of 25 mM HEPES (pH 7.4), 50 mM NaCl. Interaction assays were performed with GSTD1 purified as described (Bergson, C., et al., J. Neurosci. 15:7821-36 (1995)) or solubilized lysates of D1 HEK293 cells in 25 mM HEPES (pH 7.4), 50 mM NaCl, 10% glycerol, 1% bovine serum albumin containing 0.5% NP-40. Peptidel 421-435 ([…]) (SEQ ID No. 3) and Peptide2 ([…]) (SEQ ID No. 4) were synthesized using an Applied Biosystems 430A Peptide Synthesizer using the FastMoc procedures and reagents supplied by Perkin-Elmer, Applied Biosystems division. […]
On the technique in general: In western blotting, separated proteins are transferred to a membrane and probed.

A further test addresses D1 receptor (Homo sapiens, UniProt P21728). The test is described as follows: D1 receptor response to dopamine in presence of P24. The settings on record: effect of P24.
The target in another test is T3, D1 DA receptors (Homo sapiens, UniProt P21728).
T3 construct: pLXSN (Clontech) plasmid containing full-length human D1 (Zhou et al., Nature 347:76-80 (1990)); expressed in transfected cells; host or cells: D1-HEK293 cells, transiently transfected with pEGFP-P24
T3 sequence (P21728 whole entry): as the sequence (P21728 whole entry) above
The test is described as follows: co-immunoprecipitation with GFP mab from transfected D1-HEK293 cells. The class given is binding. The text has this:
A series of experiments were then undertaken to functionally characterize the interaction between P24 and D1 receptor proteins. D1-HEK293 cells, a HEK293 cell line that expresses hD1 receptors, and pEGFP-P24 expression plasmid were used for these studies. pEGFP-P24 encodes P24 protein tagged at its N-terminus by enhanced green fluorescent protein (EGFP). The N-terminal EGFP tag allowed testing to determine whether P24 directly associates with D1 DA receptors when coexpressed in mammalian cells in a “pull-down” assay. D1 receptors co-immunoprecipitated with EGFP-P24 fusion protein transiently expressed in transfected D1-HEK293 cells, and were “pulled down” by GFP mab.

Chain of D1 receptor (P21728 whole entry): as the sequence (P21728 whole entry) above

On to `Nc1ncnc2c1ncn2[C@@H]1O[C@H](COP(=O)(O)OP(=O)(O)OP(=O)(O)O)[C@@H](O)[C@H]1O` [ATP], for which the “Ca++i response” value in test [1] (D1 HEK293 cells) is on record as “produced a rise in Ca^++i”. In addition, the “duration of P2Y receptor Ca++i response” value in test [1] (EGFP expressing cells) is 300 to 400 s; in test [1] (EGFP-Calcyon expressing cells, following application of BisI) it was 300 to 400 s.
Take `CCCCCCCCCCCCCC(=O)O[C@@H]1[C@@H](C)[C@@]2(O)[C@@H](C=C(CO)C[C@]3(O)C(=O)C(C)=C[C@@H]23)[C@@H]2C(C)(C)[C@]12OC(C)=O` [PMA, phorbol 12-myristate 13-acetate]: in the test on protein kinase C (PKC), the “32P label incorporated into immunoprecipitated EGFP-Calcyon, treated vs untreated cells” value was “approximately five times more label incorporated”.
On to `CN(C)CCCn1cc(C2=C(c3c[nH]c4ccccc34)C(=O)NC2=O)c2ccccc21.Cl` [bisindolylmaleimide I HCl], for which the “effect of PKC inhibitor on SKF81297-induced Ca++ mobilization” value on hD1 receptors [2] was “considerably attenuated”; at hD1 receptors [2] (listed as bisindolylmalemide), “inhibits Calcyon-enabled D1 stimulated Cai^++ release”. For the same molecule, the “effect of PKC inhibitor on D1 receptor-stimulated Ca++i release” value at hD1 receptors [2] (EGFP-Calcyon expressing cells treated with carbachol) is “reduced D1 receptor-stimulated Ca^++i release”. Moreover, on hD1 receptors [3], the “cAMP levels stimulated by ATP and SKF81297, BisI-treated compared to untreated cells” value was “similar”.
Consider “SVILDYDTDVSLEKI (listed as Homo sapiens) [Pep421-435]”, for which the “block of interaction between GSTD1 and S-Calcyon by peptide” value in test [4] is on record as “prevented detection of the immunoreactive GSTD1 band”.

B1: Calcyon: 217 residue single transmembrane protein encoded by K 37 cDNA (SEQ ID No. 1) that interacts with the hD1 DA receptor (protein)
chain: MVKLGCSFSGKPGKDPGDQDGAAMDSVPLISPLDISQLQPPLPDQVVIKTQTEYQLSSPDQQNFPDLEGQRLNCSHPEEGRRLPTARMIAFAMALLGCVLIMYKAIWYDQFTCPDGFLLRHKICTPLTLEMYYTEMDPERHRSILAAIGAYPLSRKHGTETPAAWGDGYRAAKEERKGPTQAGAAAAATEPPGKPSAKAEKEAARKAAGSAAPPPAQ
modifications: D1-Like dopamine receptor activity modifying protein
B1: the “threshold of D1 receptor response to dopamine” value in the test with D1 receptor is listed as “lowers the threshold of D1 receptor response to dopamine (DA) by an order of magnitude”. Further, the “effect of Calcyon expression on D1 receptor-stimulated Ca++i mobilization” value with hD1 receptors [2] (EGFP-Calcyon vs EGFP expressing cells, D1 agonist after ATP) is “enhance the ability of D1 receptors to mobilize Ca^++i”. For the same molecule, the “effect of Calcyon expression on D1 receptor-stimulated cAMP” value in the test with hD1 receptors [3] (DA-stimulated cAMP, EGFP vs EGFP-Calcyon cells) is given as “does not alter D1 receptor activation of cAMP-dependent signaling pathways”.

B2: EGFP-P24: P24 protein tagged at its N-terminus by enhanced green fluorescent protein (protein)
chain: B1 chain
modifications: left off: large carriers
Regarding B2, in the test with D1 DA receptors, the “co-immunoprecipitation of D1 receptors” value is “co-immunoprecipitated”.
